From article PMC8083960, “Kanamycin-Mediated Conformational Dynamics of Escherichia coli Outer Membrane Protein TolC” (Frontiers in Molecular Biosciences, 2021)

Biological target: T1, TolC (Escherichia coli, UniProt P02930)
T1 construct: ~54 kDa by SDS-PAGE and MALDI; crystal structure cited as trimer, 471 residues per monomer
Experiment: isothermal titration calorimetry
Format: binding
Source text: isothermal titration calorimetry on TolC

T1 sequence (P02930 23-493): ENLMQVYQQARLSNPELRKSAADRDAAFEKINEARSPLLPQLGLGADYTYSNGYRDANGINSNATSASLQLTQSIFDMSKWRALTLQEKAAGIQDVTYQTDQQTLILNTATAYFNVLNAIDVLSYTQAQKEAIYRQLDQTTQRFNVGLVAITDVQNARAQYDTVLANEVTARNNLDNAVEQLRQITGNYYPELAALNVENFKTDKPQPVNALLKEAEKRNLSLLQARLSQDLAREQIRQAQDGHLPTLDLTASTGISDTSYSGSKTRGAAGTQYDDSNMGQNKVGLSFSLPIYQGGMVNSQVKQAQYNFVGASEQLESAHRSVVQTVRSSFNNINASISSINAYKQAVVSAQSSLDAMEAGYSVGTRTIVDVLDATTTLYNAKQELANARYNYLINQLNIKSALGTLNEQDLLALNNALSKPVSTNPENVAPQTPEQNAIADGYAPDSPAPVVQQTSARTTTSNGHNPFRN

SMILES: NC[C@H]1O[C@H](O[C@H]2[C@H](O)[C@@H](O[C@H]3O[C@H](CO)[C@@H](O)[C@H](N)[C@H]3O)[C@H](N)C[C@@H]2N)[C@H](O)[C@@H](O)[C@@H]1O [kanamycin]
- Kd: 42.7 µM
